pEC50: −log10 of the molar value. The source made the active and inactive calls. The calls are words filed in the database; no cut-off is given here.
Tests used:
[1] = molecular target: T1, Taste receptor type 2 member 16 (Homo sapiens) (UniProt Q9NYV7); test: Activation of full-length human TAS2R16 expressed in HEK293T/Galpha16-gustducin 44 cells assessed as effect on calcium flux by measuring deltaF/F0 ratio at 0.625 mM by Fluo-4 dye based FLIPR assay; assay type: functional, cell-based
T1 sequence (whole entry): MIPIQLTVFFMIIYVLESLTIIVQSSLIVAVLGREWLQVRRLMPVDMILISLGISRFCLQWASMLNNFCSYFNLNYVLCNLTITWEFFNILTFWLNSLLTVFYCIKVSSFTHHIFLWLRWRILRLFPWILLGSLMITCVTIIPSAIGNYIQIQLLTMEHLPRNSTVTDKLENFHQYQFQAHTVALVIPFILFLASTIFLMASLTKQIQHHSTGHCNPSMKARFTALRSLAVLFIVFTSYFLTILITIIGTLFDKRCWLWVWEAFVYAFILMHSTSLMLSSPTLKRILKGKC

[2] = molecular target: T1, Taste receptor type 2 member 16 (Homo sapiens); test: Activation of full-length human TAS2R16 expressed in HEK293T/Galpha16-gustducin 44 cells assessed as effect on calcium flux by measuring deltaF/F0 ratio at 0.1563 mM by Fluo-4 dye based FLIPR assay; assay type: functional, cell-based
[3] = molecular target: T1, Taste receptor type 2 member 16 (Homo sapiens); test: Activation of full-length human TAS2R16 expressed in HEK293T/Galpha16-gustducin 44 cells assessed as effect on calcium flux by measuring deltaF/F0 ratio at 0.0781 mM by Fluo-4 dye based FLIPR assay; assay type: functional, cell-based
[4] = molecular target: T1, Taste receptor type 2 member 16 (Homo sapiens); test: Activation of full-length human TAS2R16 expressed in HEK293T/Galpha16-gustducin 44 cells assessed as effect on calcium flux by measuring deltaF/F0 ratio at 10 mM by Fluo-4 dye based FLIPR assay; assay type: functional, cell-based
[5] = molecular target: T1, Taste receptor type 2 member 16 (Homo sapiens); test: Activation of full-length human TAS2R16 expressed in HEK293T/Galpha16-gustducin 44 cells assessed as effect on calcium flux by measuring deltaF/F0 ratio at 0.3125 mM by Fluo-4 dye based FLIPR assay; assay type: functional, cell-based
[6] = molecular target: T1, Taste receptor type 2 member 16 (Homo sapiens); test: Activation of full-length human TAS2R16 expressed in HEK293T/Galpha16-gustducin 44 cells assessed as effect on calcium flux by measuring deltaF/F0 ratio at 1.25 mM by Fluo-4 dye based FLIPR assay; assay type: functional, cell-based
[7] = molecular target: T1, Taste receptor type 2 member 16 (Homo sapiens); test: Activation of full-length human TAS2R16 expressed in HEK293T/Galpha16-gustducin 44 cells assessed as effect on calcium flux by measuring deltaF/F0 ratio at 5 mM by Fluo-4 dye based FLIPR assay; assay type: functional, cell-based
[8] = molecular target: T2, Taste receptor type 2 member 16 (Homo sapiens, UniProt Q9NYV7); test: Activation of full-length human TAS2R16 expressed in HEK293T/Galpha16-gustducin 44 cells assessed as stimulation of calcium flux by measuring deltaF/F0 ratio by Fluo-4 dye based FLIPR assay; assay type: functional, cell-based
T2 sequence (Q9NYV7 whole entry): T1 sequence (whole entry)

[9] = molecular target: T1, Taste receptor type 2 member 16 (Homo sapiens); test: Activation of full-length human TAS2R16 expressed in HEK293T/Galpha16-gustducin 44 cells assessed as effect on calcium flux by measuring deltaF/F0 ratio at 0.0391 mM by Fluo-4 dye based FLIPR assay; assay type: functional, cell-based
[10] = molecular target: T1, Taste receptor type 2 member 16 (Homo sapiens); test: Activation of full-length human TAS2R16 expressed in HEK293T/Galpha16-gustducin 44 cells assessed as effect on calcium flux by measuring deltaF/F0 ratio at 2.5 mM by Fluo-4 dye based FLIPR assay; assay type: functional, cell-based
[11] = molecular target: T3, Taste receptor type 2 member 31 (Homo sapiens) (UniProt P59538); test: Antagonist activity at full-length human TAS2R44 expressed in HEK293T/Galpha16-gustducin 44 cells assessed as effect on calcium flux by measuring deltaF/F0 ratio at 25 uM in presence of 6.25 mM sucralose by Fluo-4 dye based FLIPR assay (reference value: 0.027 +/- 0.029); assay type: functional, cell-based
T3 sequence (whole entry): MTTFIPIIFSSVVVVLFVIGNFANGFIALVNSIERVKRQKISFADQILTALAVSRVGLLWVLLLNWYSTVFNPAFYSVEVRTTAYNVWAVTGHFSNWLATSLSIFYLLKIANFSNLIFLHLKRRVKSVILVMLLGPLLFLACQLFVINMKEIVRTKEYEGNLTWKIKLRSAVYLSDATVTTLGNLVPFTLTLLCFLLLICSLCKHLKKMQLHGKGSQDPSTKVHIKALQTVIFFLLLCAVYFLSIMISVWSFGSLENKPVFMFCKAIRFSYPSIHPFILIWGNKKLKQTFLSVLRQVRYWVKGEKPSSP

[12] = molecular target: T1, Taste receptor type 2 member 16 (Homo sapiens); test: Antagonist activity at full-length human TAS2R16 expressed in HEK293T/Galpha16-gustducin 44 cells assessed as effect on calcium flux by measuring deltaF/F0 ratio at 25 uM in presence of 0.1563 mM phenyl-beta-glucopyranoside by Fluo-4 dye based FLIPR assay; assay type: functional, cell-based
[13] = molecular target: T3, Taste receptor type 2 member 31 (Homo sapiens); test: Antagonist activity at full-length human TAS2R44 expressed in HEK293T/Galpha16-gustducin 44 cells assessed as effect on calcium flux by measuring deltaF/F0 ratio at 25 uM in presence of 0.3906 mM sucralose by Fluo-4 dye based FLIPR assay (reference value: 0.046 +/- 0.048); assay type: functional, cell-based
[14] = molecular target: T1, Taste receptor type 2 member 16 (Homo sapiens); test: Antagonist activity at full-length human TAS2R16 expressed in HEK293T/Galpha16-gustducin 44 cells assessed as effect on calcium flux by measuring deltaF/F0 ratio at 25 uM in presence of 10 mM phenyl-beta-glucopyranoside by Fluo-4 dye based FLIPR assay; assay type: functional, cell-based
[15] = molecular target: T3, Taste receptor type 2 member 31 (Homo sapiens); test: Antagonist activity at full-length human TAS2R44 expressed in HEK293T/Galpha16-gustducin 44 cells assessed as effect on calcium flux by measuring deltaF/F0 ratio at 25 uM in presence of 0.7813 mM sucralose by Fluo-4 dye based FLIPR assay (reference value: 0.038 +/- 0.042); assay type: functional, cell-based
[16] = molecular target: T1, Taste receptor type 2 member 16 (Homo sapiens); test: Antagonist activity at full-length human TAS2R16 expressed in HEK293T/Galpha16-gustducin 44 cells assessed as effect on calcium flux by measuring deltaF/F0 ratio at 25 uM in presence of 0.0391 mM phenyl-beta-glucopyranoside by Fluo-4 dye based FLIPR assay; assay type: functional, cell-based
[17] = molecular target: T3, Taste receptor type 2 member 31 (Homo sapiens); test: Antagonist activity at full-length human TAS2R44 expressed in HEK293T/Galpha16-gustducin 44 cells assessed as effect on calcium flux by measuring deltaF/F0 ratio at 25 uM in presence of 50 mM sucralose by Fluo-4 dye based FLIPR assay (reference value: 0.192 +/- 0.011); assay type: functional, cell-based
[18] = molecular target: T3, Taste receptor type 2 member 31 (Homo sapiens); test: Antagonist activity at full-length human TAS2R44 expressed in HEK293T/Galpha16-gustducin 44 cells assessed as effect on calcium flux by measuring deltaF/F0 ratio at 25 uM in presence of 3.125 mM sucralose by Fluo-4 dye based FLIPR assay (reference value: 0.030 +/- 0.042); assay type: functional, cell-based
[19] = molecular target: T3, Taste receptor type 2 member 31 (Homo sapiens); test: Antagonist activity at full-length human TAS2R44 expressed in HEK293T/Galpha16-gustducin 44 cells assessed as effect on calcium flux by measuring deltaF/F0 ratio at 25 uM in presence of 1.5625 mM sucralose by Fluo-4 dye based FLIPR assay (reference value: 0.042 +/- 0.039); assay type: functional, cell-based
[20] = molecular target: T1, Taste receptor type 2 member 16 (Homo sapiens); test: Antagonist activity at full-length human TAS2R16 expressed in HEK293T/Galpha16-gustducin 44 cells assessed as effect on calcium flux by measuring deltaF/F0 ratio at 25 uM in presence of 1.25 mM phenyl-beta-glucopyranoside by Fluo-4 dye based FLIPR assay; assay type: functional, cell-based
[21] = molecular target: T1, Taste receptor type 2 member 16 (Homo sapiens); test: Antagonist activity at full-length human TAS2R16 expressed in HEK293T/Galpha16-gustducin 44 cells assessed as effect on calcium flux by measuring deltaF/F0 ratio at 25 uM in presence of 0.0781 mM phenyl-beta-glucopyranoside by Fluo-4 dye based FLIPR assay; assay type: functional, cell-based
Homo sapiens = organism: Homo sapiens; test: Inhibition of 3 mM sucralose-induced bitter sensitivity in bitter sensitive human panelists tasting solution containing 3 mM sucralose with 13 ppm test compound; assay type: functional, organism-based
[22] = molecular target: T1, Taste receptor type 2 member 16 (Homo sapiens); test: Antagonist activity at full-length human TAS2R16 expressed in HEK293T/Galpha16-gustducin 44 cells assessed as effect on calcium flux by measuring deltaF/F0 ratio at 25 uM in presence of 0.625 mM phenyl-beta-glucopyranoside by Fluo-4 dye based FLIPR assay; assay type: functional, cell-based
[23] = molecular target: T1, Taste receptor type 2 member 16 (Homo sapiens); test: Antagonist activity at full-length human TAS2R16 expressed in HEK293T/Galpha16-gustducin 44 cells assessed as effect on calcium flux by measuring deltaF/F0 ratio at 25 uM in presence of 5 mM phenyl-beta-glucopyranoside by Fluo-4 dye based FLIPR assay; assay type: functional, cell-based
HEK-293T = test: Effect on calcium flux in HEK293T/Galpha16-gustducin 44 cells assessed as effect on calcium flux by measuring deltaF/F0 ratio at 25 uM in presence of 100 mM sucralose by Fluo-4 dye based FLIPR assay (reference value: -0.179 +/- 0.023); assay type: functional, Homo sapiens
[24] = molecular target: T1, Taste receptor type 2 member 16 (Homo sapiens); test: Antagonist activity at full-length human TAS2R16 expressed in HEK293T/Galpha16-gustducin 44 cells assessed as effect on calcium flux by measuring deltaF/F0 ratio at 25 uM in presence of 2.5 mM phenyl-beta-glucopyranoside by Fluo-4 dye based FLIPR assay; assay type: functional, cell-based
[25] = molecular target: T3, Taste receptor type 2 member 31 (Homo sapiens); test: Antagonist activity at full-length human TAS2R44 expressed in HEK293T/Galpha16-gustducin 44 cells assessed as effect on calcium flux by measuring deltaF/F0 ratio at 25 uM in presence of 100 mM sucralose by Fluo-4 dye based FLIPR assay (reference value: 0.352 +/- 0.030); assay type: functional, cell-based
[26] = molecular target: T4, Taste receptor type 2 member 1 (Homo sapiens) (UniProt Q9NYW7); test: Antagonist activity at full-length human TAS2R1 expressed in HEK293T/Galpha16-gustducin 44 cells assessed as inhibition of sucralose-induced calcium flux at 25 uM by Fluo-4 dye based FLIPR assay; assay type: functional, cell-based
T4 sequence (whole entry): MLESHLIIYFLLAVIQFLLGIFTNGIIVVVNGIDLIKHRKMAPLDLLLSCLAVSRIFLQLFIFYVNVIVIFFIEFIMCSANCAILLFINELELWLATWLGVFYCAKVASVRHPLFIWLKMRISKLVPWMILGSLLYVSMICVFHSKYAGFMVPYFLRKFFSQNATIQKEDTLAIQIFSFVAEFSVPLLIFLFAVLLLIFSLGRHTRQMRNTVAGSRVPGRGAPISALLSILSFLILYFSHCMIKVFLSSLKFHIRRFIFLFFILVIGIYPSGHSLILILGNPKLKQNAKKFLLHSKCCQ

[27] = molecular target: T3, Taste receptor type 2 member 31 (Homo sapiens); test: Antagonist activity at full-length human TAS2R44 expressed in HEK293T/Galpha16-gustducin 44 cells assessed as effect on calcium flux by measuring deltaF/F0 ratio at 25 uM in presence of 12.5 mM sucralose by Fluo-4 dye based FLIPR assay (reference value: 0.051 +/- 0.004); assay type: functional, cell-based
[28] = molecular target: T1, Taste receptor type 2 member 16 (Homo sapiens); test: Antagonist activity at full-length human TAS2R16 expressed in HEK293T/Galpha16-gustducin 44 cells assessed as effect on calcium flux by measuring deltaF/F0 ratio at 25 uM in presence of 0.3125 mM phenyl-beta-glucopyranoside by Fluo-4 dye based FLIPR assay; assay type: functional, cell-based
[29] = molecular target: T3, Taste receptor type 2 member 31 (Homo sapiens); test: Antagonist activity at full-length human TAS2R44 expressed in HEK293T/Galpha16-gustducin 44 cells assessed as effect on calcium flux by measuring deltaF/F0 ratio at 25 uM in presence of 25 mM sucralose by Fluo-4 dye based FLIPR assay (reference value: 0.110 +/- 0.019); assay type: functional, cell-based
[30] = molecular target: T1, Taste receptor type 2 member 16 (Homo sapiens); test: Antagonist activity at full-length human TAS2R16 expressed in HEK293T/Galpha16-gustducin 44 cells assessed as inhibition of P-beta-G-induced calcium flux by measuring P-beta-G EC50 at 25 uM by Fluo-4 dye based FLIPR assay; assay type: functional, cell-based

SMILES: OC[C@H]1O[C@@H](Oc2ccccc2)[C@H](O)[C@@H](O)[C@@H]1O
- Ratio [1]: 2.28
- Ratio [2]: 0.926
- Ratio [3]: 0.213
- Ratio [4]: 2.88
- Ratio [5]: 1.81
- Ratio [6]: 2.36
- Ratio [7]: 2.69
- pEC50 [8]: 3.68
- Ratio [9]: 0.012
- Ratio [10]: 2.58

SMILES: CC1=CCC(C/C=C/C(=O)O)C1(C)C (centres undefined)
- Ratio [11]: 0
- Ratio [12]: 0.702
- Ratio [13]: 0.011
- Ratio [14]: 2.83
- Ratio [15]: 0.01
- Ratio [16]: -0.013
- Ratio [17]: -0.025
- Ratio [18]: 0.005
- Ratio [19]: 0.016
- Ratio [20]: 2.37
- Ratio [21]: 0.108
- inhibition (Homo sapiens): Active
- Ratio [22]: 2.14
- Ratio [23]: 2.65
- Ratio (HEK-293T): -0.175
- Ratio [24]: 2.48
- Ratio [25]: 0.107
- inhibition [26]: Active
- Ratio [27]: -0.015
- Ratio [28]: 1.55
- Ratio [29]: -0.035

SMILES: CC1CCC(CCCC(N)=O)C1(C)C (centres undefined)
- inhibition [30]: inactive
- Activity (HEK-293T; Homo sapiens): inactive
- inhibition [26]: inactive
